Results taken from US6040305A, “Compounds useful for inhibition of farnesyl protein transferase” (Schering Corporation, priority 1997, dated 2000).
Where two headings read alike, the source gives them in different places.

Legend:
[1] = target: T1, farnesyl protein transferase (Homo sapiens, UniProt P49354+P49356); assay: FPT IC50, inhibition of farnesyl protein transferase (K-ras); type: biochemical
Protocol: (§1) FPT IC50 (inhibition of farnesyl protein transferase, in vitro enzyme assay) and COS Cell IC50 (Cell-Based Assay) were determined following the assay procedures described in WO 95110516, published Apr. 20, 1995. GGPT IC50 (inhibition of geranylgeranyl protein transferase, in vitro enzyme assay), Cell Mat Assay, and anti-tumor activity (in vivo anti-tumor studies) could be determined by the assay procedures described in WO 95/10516. The disclosure of WO 95/10516 is incorporated herein by reference thereto.

COS Cell = COS Cell IC50 (Cell-Based Assay)
Protocol: as §1

[2] = target: T1, farnesyl protein transferase; assay: FPT IC50, inhibition of farnesyl protein transferase, in vitro enzyme assay (H-ras); type: biochemical
Protocol: as §1

Human tumor cells = assay: Soft Agar Assay (anchorage-independent growth); type: cell-based; details: 10-16 days at 37° C., 5% CO2, MTT staining, read-out: Soft Agar FPT IC50
Protocol: Anchorage-independent growth is a characteristic of tumorigenic cell lines. Human tumor cells are suspended in growth medium containing 0.3% agarose and an indicated concentration of a farnesyl transferase inhibitor. The solution is overlayed onto growth medium solidified with 0.6% agarose containing the same concentration of farnesyl transferase inhibitor as the top layer. After the top layer is solidified, plates are incubated for 10-16 days at 37° C. under 5% CO2 to allow colony outgrowth. After incubation, the colonies are stained by overlaying the agar with a solution of MTT (3-[4,5-dimethyl-thiazol-2-yl]-2,5-diphenyltetrazolium bromide, Thiazolyl blue) (1 mg/mL in PBS). Colonies can be counted and the IC50 's can be determined.

| IC50 [1] [nM] | IC50 [2] [nM] | IC50 (Human tumor cells) [nM] | IC50 (Human tumor cells; value given in M) [nM] | SMILES | IC50 (COS Cell) [nM] |
| --- | --- | --- | --- | --- | --- |
| 8.6 | 1.8 | 70 | – | NC(=O)CN1CCC(CC(=O)N2CCC([C@H]3c4ncc(Br)cc4CCc4cc(Cl)cc(Br)c43)CC2)CC1 [Compound 2.0] | 6 |
| 26 | 3.9 | 175 | – | CON(C)C(=O)CN1CCC(CC(=O)N2CCC([C@H]3c4ncc(Br)cc4CCc4cc(Cl)cc(Br)c43)CC2)CC1 [Compound 3.0] | 20 |
| 20 | 5 | 100 | – | O=C(CC1CCN(CC(=O)N2CCOCC2)CC1)N1CCC([C@H]2c3ncc(Br)cc3CCc3cc(Cl)cc(Br)c32)CC1 [Compound 7.0] | 25 |
| 42 | 18 | > 500 | – | CC(C)(C)OC(=O)N1CCN(C(=O)CN2CCC(CC(=O)N3CCC([C@H]4c5ncc(Br)cc5CCc5cc(Cl)cc(Br)c54)CC3)CC2)CC1 [Compound 8.0] | 22 |
| 17 | 4.3 | 500 | – | O=C(CC1CCN(CC(=O)N2CCNCC2)CC1)N1CCC([C@H]2c3ncc(Br)cc3CCc3cc(Cl)cc(Br)c32)CC1 [Compound 9.0] | 120 |

More lines, now with the values behind:

| SMILES | IC50 [1] [nM] | IC50 [2] [nM] | IC50 (Human tumor cells) [nM] | IC50 (Human tumor cells; value given in M) [nM] | IC50 (COS Cell) [nM] |
| --- | --- | --- | --- | --- | --- |
| CCN(CC)C(=O)CN1CCC(CC(=O)N2CCC([C@H]3c4ncc(Br)cc4CCc4cc(Cl)cc(Br)c43)CC2)CC1 [Compound 4.0] | 46 | 4.3 | 300 | – | 40 |
| O=C(CN1CCC(CC(=O)N2CCC([C@H]3c4ncc(Br)cc4CCc4cc(Cl)cc(Br)c43)CC2)CC1)NCc1ccccc1 [Compound 5.0] | 51.9 | 16 | – | – | 840 |
| O=C(CN1CCC(CC(=O)N2CCC([C@H]3c4ncc(Br)cc4CCc4cc(Cl)cc(Br)c43)CC2)CC1)N[C@@H]1O[C@H](CO)[C@H](O)[C@H](O)[C@H]1O [Compound 6.0] | 17 | 3.4 | – | > 500 | 300 |
| O=C(CC1CCN(CC(=O)N2CCc3ccccc32)CC1)N1CCC([C@H]2c3ncc(Br)cc3CCc3cc(Cl)cc(Br)c32)CC1 [Compound 10.0] | – | 5.4 | – | – | 100 |
| CC(C)(C)OC(=O)CN1CCC(CC(=O)N2CCC([C@H]3c4ncc(Br)cc4CCc4cc(Cl)cc(Br)c43)CC2)CC1 [Compound 11.0] | – | 28 | – | – | – |
| O=C(CC1CCN(CC(O)CO)CC1)N1CCC([C@H]2c3ncc(Br)cc3CCc3cc(Cl)cc(Br)c32)CC1 (stereo partly shown) [Compound 20.0] | – | 2 | 60 | – | < 10 |
